Measured values from patent publication EP1724268A1, “COMPOUND HAVING TGF-BETA INHIBITORY ACTIVITY AND PHARMACEUTICAL COMPOSITION CONTAINING SAME” (KIRIN BEER KABUSHIKI KAISHA, priority 2004, dated 2005).
Read-outs that look alike come from different tables or passages of the source.

System: TGFβ signal
Test: TGFβ signal inhibitory activity, (SBE)4-Luc reporter in A549 cells (Test Examples 1A and 1B)
Format: cell-based, human
Settings: Homo sapiens
Description: Test Example 1A: TGFβ signal inhibitory activity (in vitro test) The compounds according to the present invention was evaluated for TGFβ signal inhibitory activity according to the method described in J. Boil .Chem., 273, 21145-21152 (1998). Specifically, a plasmid having four tandem binding sequences of Smad3, a TGF-beta signal transducer, to the upstream of a luciferases gene were used as a reporter plasmid ((SBE)4-Luc) to detect TGF-beta signal, This reporter gene was introduced into human pulmonary carcinoma epithelial cells (A549) (available from ATCC) to establish a stable cell line. A test compound and TGFβ-1 (2 ng/ ml) were added to the cells, and the mixture was cultured for 4 hr. In this case, the compounds according to the present invention synthesized in the Examples were used as the test compound. After the culture, the luciferase activity of the cells were measured by chemiluminescence (Steady Glo (trademark) luciferase assay system, available from Promega). Likewise, the luciferase activity was measured as a control against the culture of cells with the addition of TGFβ only and the culture of cells without the addition of both TGFβ and the test compound.
The TGFβ inhibition (%) was calculated by the following equation, based on the measurement results. TGFβ inhibition(%) = (A-B)/(A-C) × 100 [formula] wherein • A: luciferase activity with the addition of TGFβ1 and without the addition of test compound (relative luciferase unit), • B: luciferase activity with the addition of both TGFβ1 and test compound (relative luciferase unit), and • C: luciferase activity without the addition of both TGFβ1 and test compound (relative luciferase unit).
The test was carried out for each of test compound at the concentrations of 3 µM and 10 µM. For certain test compounds, the test was further carried out for test compound at the concentration of 1 µM.
For the compounds of Reference Examples, the TGFβ signal inhibitory activity was evaluated in the same manner as in Test Example 1A.

[1] = A549, test compound 3 µM, Reference Examples, Table 1B, read-out: TGFβ inhibition rate, %
[2] = A549, test compound 10 µM, Reference Examples, Table 1B, read-out: TGFβ inhibition rate, %
[3] = A549, 3 µM, compounds of Reference Examples (Test Example 1B), read-out: TGFβ inhibition rate, %
[4] = A549, 10 µM, compounds of Reference Examples (Test Example 1B), read-out: TGFβ inhibition rate, %
[5] = A549, test compound 3 µM, TGFβ-1 2 ng/ml, 4 hr, Table 1A, read-out: TGFβ inhibition rate, %
[6] = A549, test compound 10 µM, TGFβ-1 2 ng/ml, 4 hr, Table 1A, read-out: TGFβ inhibition rate, %

SMILES | inhibition at 3 µM [3] | inhibition at 10 µM [4] | also measured
COc1ccc(Oc2ccnc3cc(OC)c(OC)cc23)c(C(C)=O)c1 [r177] | – | – | inhibition at 3 µM (A549, read-out: TGFβ inhibition rate, %): 94%
COc1cc2nccc(Oc3cccc(C(=O)c4ccccc4)c3)c2cc1OC [r77] | – | – | inhibition at 3 µM [1]: 0%; inhibition at 10 µM [2]: 46%
COc1cc2c(Oc3ccc(C)nc3-c3nccs3)ccnc2cc1OCc1ccccc1 [Compound r328] | 100% | 100% | –
Cc1cc(Oc2ccnc3ccc(-c4ccncc4)cc23)c(-c2ccccn2)nc1C [Compound 7, 5,6-Dimethyl-3-(6-pyridin-4-yl-quinolin-4-yloxy)-[2,2']bipyridine] | – | – | inhibition at 3 µM [5]: 100%; inhibition at 10 µM [6]: 100%
COc1cc2c(Oc3ccc(C)cc3C(=O)c3ccccc3)ccnc2cc1OCC1CO1 (stereo not shown) [Compound r151] | – | – | inhibition at 3 µM [1]: 95%; inhibition at 10 µM [2]: 100%
COc1cc2c(Oc3ccc(C)cc3C(=O)c3ccccc3)ccnc2cc1OCCCN1CCNCC1 [r137] | – | – | inhibition at 3 µM [1]: 100%; inhibition at 10 µM [2]: 100%
COc1ccc2ncnc(Oc3cc(C)c(C)nc3-c3ccc(C)cn3)c2c1 [Compound 39, 6-Methoxy-4-(5,6,5'-trimethyl-[2,2']bipyridin-3-yloxy)-quinazoline] | – | – | inhibition at 3 µM [5]: 88%; inhibition at 10 µM [6]: 99%
COc1cc2c(Oc3cc4cccnc4nc3-c3ccccc3)ccnc2cc1C [Compound 62, 3-(6-Methoxy-7-methyl-quinolin-4-yloxy)-2-phenyl-[1,8]naphthyridine] | – | – | inhibition at 3 µM [5]: 99%; inhibition at 10 µM [6]: 100%
COc1cc2nccc(Oc3ccc(C)nc3-c3ccccn3)c2cc1OC [r261] | 100% | 100% | –
COc1cc2c(Oc3cc4cccnc4nc3C)ccnc2cc1OCC(CO)CO [Compound r404] | 29% | 72% | –
COc1cc2nccc(Oc3cc(C)c(C)nc3-c3ccccn3)c2cc1OC(C)C [Compound 120, 3-(6-Isopropoxy-7-methoxy-quinolin-4-yloxy)-5,6-dimethyl-[2,2']bipyridine] | – | – | inhibition at 3 µM [5]: 94%; inhibition at 10 µM [6]: 100%
COc1cc2nccc(Oc3cc(C)c(C)nc3-c3cnccc3C)c2cc1OC [r435] | 29% | 79% | –
COc1cc2nccc(Oc3cc4cccnc4nc3-c3ccc(C#N)cc3)c2cc1OC [Compound 86, 4-[3-(6,7-Dimethoxy-quinolin-4-yloxy)-[1,8]naphthyridin-2-yl]-benzonitrile] | – | – | inhibition at 3 µM [5]: 26%; inhibition at 10 µM [6]: 74%
Cc1cc(Oc2ccnc3cc(-c4cccc(O)c4)ccc23)c(-c2ccccn2)nc1C [Compound 106, 3-[4-(5,6-Dimethyl-[2,2']bipyridinyl-3-yloxy)-quinolin-7-yl]-phenol] | – | – | inhibition at 3 µM [5]: 99%; inhibition at 10 µM [6]: 100%
COc1cc2nccc(Oc3cc(C)c(C)nc3-c3nc(C)c(C)s3)c2cc1OC [Compound r260, 4-[2-(4,5-Dimethylthiazol-2-yl)-5,6-dimethyl-pyridin-3-yloxy]-6,7-dimethoxy-quinoline] | 96% | 100% | –
COc1cc2nccc(Oc3ccc(F)nc3-c3ccccn3)c2cc1OC [Compound 115, 3-(6,7-Dimethoxy-quinolin-4-yloxy)-6-fluoro-[2,2']bipyridine] | – | – | inhibition at 3 µM [5]: 100%; inhibition at 10 µM [6]: 100%
COc1cc2c(Oc3cc4ccccc4nc3C)ccnc2cc1NCCN1CCOCC1 [Compound r410, [6-Methoxy-4-(2-methyl-quinolin-3-yloxy)-quinolin-7-yl]-(2-morpholin-4-yl-ethyl)-amine] | 91% | 100% | –
COc1cc2nccc(Oc3cc(C)c(C)nc3-c3cc(C)ccn3)c2cc1OC [Compound r273] | 99% | 100% | –
COc1cc2nccc(Oc3cc(C)c(SC)cc3C(C)=O)c2cc1OC [Compound r186] | 76% | 100% | –
COc1cc2ncnc(Oc3cc(C)c(C)nc3-c3ccc(C)cn3)c2cc1OC [r437] | 95% | 100% | –
COc1cc2nccc(Oc3ccc(C)nc3-c3cccc(NC(C)=O)c3)c2cc1OC [Compound r236] | 90% | 100% | –
COc1cc2c(Oc3cc4cccnc4nc3C)ccnc2cc1OCCN1CCOCC1 [Compound r441] | 97% | 100% | –
COc1cc2c(Oc3cc(C)c(C)nc3-c3nc(C)c(C)s3)ccnc2cc1OCC(O)CO (stereo not shown) [Compound r464] | 97% | 100% | –

SMILES | inhibition at 3 µM [3] | inhibition at 10 µM [4] | also measured
COc1cc2nccc(Oc3ccc(C)nc3-c3cccnc3)c2cc1OC [Compound r262] | 91% | 100% | –
Cc1cc(Oc2ncnc3ccc(Cl)cc23)c(-c2ccccn2)nc1C [Compound 24, 6-Chloro-4-(5,6-dimethyl-[2,2']bipyridin-3-yloxy)-quinazoline] | – | – | inhibition at 3 µM [5]: 90%; inhibition at 10 µM [6]: 99%
COc1cc2c(Oc3ccc(C)cc3C(=O)c3ccccc3)ccnc2cc1OCC(O)CN1CCC(CO)CC1 (stereo not shown) [r154] | – | – | inhibition at 3 µM [1]: 99%; inhibition at 10 µM [2]: 100%
COc1ccc2c(Oc3cc(C)c(C)nc3-c3ccccn3)ccnc2c1 [Compound 16, 3-(7-Methoxy-quinolin-4-yloxy)-5,6-dimethyl-[2,2']bipyridine] | – | – | inhibition at 1 µM (A549, test compound 1 µM, TGFβ-1 2 ng/ml, 4 hr, Table 1A, read-out: TGFβ inhibition rate, %): 97%; inhibition at 3 µM [5]: 100%
COc1cc2nccc(Oc3ccc(C)nc3-c3ccc(C(C)C)cc3)c2cc1OC [Compound r243] | -7% | 62% | –
COc1cc2c(Oc3cc4ccccc4nc3C)ccnc2cc1OCCN1CCC(O)CC1 [Compound r364] | 100% | 100% | –
COc1cc2c(Oc3ccc(C)cc3C(=O)c3ccccc3)ccnc2cc1OCCN1CCOCC1 [Compound r130] | – | – | inhibition at 3 µM [1]: 90%; inhibition at 10 µM [2]: 100%
CCOC(=O)C1CCCN(CCOc2cc3nccc(Oc4cc5ccccc5nc4C)c3cc2OC)C1 (stereo not shown) [Compound r361] | 96% | 100% | –
COc1cc2c(Oc3cc(C)c(C)nc3-c3ccc(C)cn3)ccnc2cc1OCCNCCO [r469] | 100% | – | –
COc1cc2nccc(Oc3cc4ccccc4nc3C)c2cc1OC [r276] | 89% | 100% | –
COc1cc2nccc(Oc3cc(C)c(C)cc3I)c2cc1OC [Compound r164, 4-(2-Iodo-4,5-dimethyl-phenoxy)-6,7-dimethoxy-quinoline] | 54% | 98% | –
COc1cc2c(Oc3cc4ccccc4nc3C)ccnc2cc1OCCN1CCCC(C(N)=O)C1 (stereo not shown) [Compound r360] | 100% | 100% | –
COc1cc2nccc(Oc3cc(C)c(C)cc3/C(C)=N/OCc3ccccc3)c2cc1OC [r198] | 32% | 80% | –
COc1cc2c(Oc3cc(C)c(C)nc3-c3cccnc3)ccnc2cc1OCCCCO [Compound r444] | 100% | – | –
COc1cc2nccc(Oc3cc4ccccc4nc3-c3ccc(F)cc3F)c2cc1OC [r286] | 93% | 100% | –
Cc1cc(Oc2ccnc3ccc(O)cc23)c(-c2ccccn2)nc1C [Compound 139, 4-(5,6-Dimethyl-[2,2']bipyridinyl-3-yloxy)-quinolin-6-ol] | – | – | inhibition at 3 µM [5]: 100%; inhibition at 10 µM [6]: 100%
Cc1ccc(Oc2ccnc3ccc(OCCCN4CCN(CCO)CC4)cc23)c(-c2ncccn2)n1 [Compound 221, 2-(4-{3-[4-(6-Methyl-2-pyrimidin-2-yl-pyridin-3-yloxy)-quinolin-6-yloxy]-propyl}-piperazin-1-yl)-ethano I] | – | – | inhibition at 3 µM [5]: 39%; inhibition at 10 µM [6]: 79%
CCC(=O)c1cc(C(C)(C)C)ccc1Oc1ccnc2cc(OC)c(OC)cc12 [Compound r49] | – | – | inhibition at 3 µM [1]: 0%; inhibition at 10 µM [2]: 62%
COc1cc2c(Oc3cc(C)c(C)cc3C(C)=O)ccnc2cc1OCCN1CCOCC1 [Compound r316] | 99% | 100% | –
COc1cc2c(Oc3cc(C)c(C)nc3-c3nc(C)c(C)s3)ccnc2cc1O [Compound r455] | 76% | 99% | –
COc1cc2nccc(Oc3ccc(C)cc3C(=O)c3ccc(OCCN4CCCCC4)cc3)c2cc1OC [Compound r190] | 30% | 86% | –
COc1cc2nccc(Oc3ccc(C)cc3-c3ccccn3)c2cc1OC [r167] | 98% | 100% | –
COc1cc2c(Oc3cc(C)c(C)nc3-c3ccccc3)ccnc2cc1OCC(O)CO (stereo not shown) [Compound r335] | 100% | – | –
